The subject of this experiment is MMP2-predigested collagen IV. The experiment in a line: In vitro binding to MMP2-predigested collagen IV coated glass slides. On the set-up: species or system human. Here is the method:
T-peptide-FITC (Alexa 488) and control peptide-FITC conjugates, as well as the unlabelled T-peptide-LPETG peptide, were commercially synthesized (GL Biochem. Shanghai, China) using solid phase peptide synthesis, as described elsewhere herein. The concentration of the synthesized peptides were all at 1 mg/ml.
Binding to MMP2 digested collagen IV Collagen IV was applied to glass slides coated with polylysine. 1. Polylysine (MW of 30,000-70,000) at 0.1 mg/ml in 0.15 M borate buffer (pH 8.3) was prepared and filtered with […] pore size membrane syringe filter (Millex® Syringe Filter, Millipore). 2. Collagen IV (collagen type IV from human fibroblast culture, Sigma. Aldrich) was diluted to 1:10 with Hank's Balanced Salt Solution (HBSS) to 0.04 mg/ml. 3. For MMP2 digestion, Active recombinant human MMP2 enzyme (expressed in CHO cells) was purchased from Calbiochem. MMP2 stock solution was diluted with PBS to create 0.01 μg/μl MMP2 concentration according to manufacturer's recommendations. 4. For T-peptide-HTC testing using added MMP2, 20 μl of polylysine was spotted on several glass slides and left overnight at room temperature to dry. This forms a coating base for collagen to adhere to subsequently. 5. To predigest some collagen IV with MMP2, 3 μl of (0.1 mg/ml ) MMP2 was mixed with 35.8 μl of diluted collagen IV solution with 1.2 μl of 100 mM CaCl2 (3 mM Calcium final concentration) in an Eppendorf tube and incubated at 37° C. shaking at 600 rpm in an Eppendorf Thermomixer for 2 hours. 6. To create intact collagen IV coated slides, […] of diluted collagen IV solution was dropped onto the dried polylysine spot on the slide. 7. To create MMP2 predigested collagen IV coated slides, […] predigested collagen IV was dropped onto the dried polylysine spot on the glass slide. 8. The slides with collagen IV were dried uncovered overnight before testing. 9. Next day, […] of T-peptide-FITC (0.1 mg/ml) was added to the MMP2 predigested collagen spot, […] of T-peptide-FITC (0.1 mg/ml) was added to the intact collagen slide, and […] Control peptide-FITC (0.1mg/ml) was added to the MMP2 predigested collagen slide and the slides were incubated in a covered humidified box with wet paper towels at room temperature for 60 minutes. 10. For the ‘blocked epitope’ slide, […] of unlabelled T-peptide-LPETG (0.1 mg/ml) was added to the MMP2 predigested collagen slide and incubated similarly for 60 minutes. This step binds the epitopes present on the collagen IV and prevents further binding with the FITC labelled T-peptide. Next, […] of T-peptide-FITC (0.1 mg/ml) was added to the same area and incubated for 60 minutes. 11. All the treated slides were examined under fluorescence microscopy (IX81 Olympus microscope).

This is an account of results in patent publication US20190321496A1, “AGENTS AND METHODS FOR THE DIAGNOSIS AND TREATMENT OF DISEASES ASSOCIATED WITH EXTRACELLULAR MATRIX TURNOVER” (Baker IDI Heart and Diabetes Institute Holdings Limited, priority 2016, published 2019).

*1 amine or outer side, *2 acyl side, *3 side chain or, on linkers, in order; H or OH if unused. Where no end group is shown, it is not given here. [ ]: non-standard residue; d: D form. Cys(Me) = CSC[C@H](N[*:1])C(=O)[*:2]; AEA = NCCOCC(=O)O

“GGGWWSSASPAATLTYTWSGLPAPASPA-eeeeeeee-(Aop)-PLGC(Me)AG-rrrrrrrrr-GAGAPAC (GGGWWSSASPAATLTYTWSGLPAPASPA[dE][dE][dE][dE][dE][dE][dE][dE][AEA]PLG[Cys(Me)]AG[dR][dR][dR][dR][dR][dR][dR][dR][dR]GAGAPAC) [GGG-T-peptide-ACPP-cysteine]”: the “binding to MMP2-predigested collagen IV fibres with additional amino acids at the N terminus” value was “did not reduce or eliminate binding”. Take “HTLTYTWSGGGLPETGGHHHHHH-OH [T-peptide-LPETG]”: for the setting “preincubation 0.1 mg/ml, 60 minutes”, the “blocking of T-peptide-FITC binding to MMP2-predigested collagen IV” value is given as “blocked binding”.
